Columns and labels:
[1] = system: 22Rv1; test: pAkt pathway inhibition, 22Rv1; type: cell-based; settings: Homo sapiens; 22Rv1, Prostate
[2] = system: PC3; test: pAkt pathway inhibition, PC3; type: cell-based; settings: Homo sapiens, PC-3; PC3, Prostate
[3] = system: OVCAR-3; test: pAkt pathway inhibition, OVCAR-3; type: cell-based; settings: Homo sapiens; OVCAR-3, Ovarian
[4] = system: 786-0; test: pAkt pathway inhibition, 786-0; type: cell-based; settings: Homo sapiens; 786-0, Renal
[5] = system: LNCaP; test: Viability (AlamarBlue), LNCaP; type: cell-based; settings: Homo sapiens, Prostate
Experimental: (§1) For primary T-ALL samples, cell viability was determined using the BD Cell Viability kit (BD Biosciences) and fluorescent counting beads as previously described in Armstrong, F. et al., NOTCH is a key regulator of human T-cell acute leukemia initiating cell activity, Blood 113, 1730-1740 (2009). Cells were plated with MS5-DL1 stroma cells. After 72 hours following treatment, cells were harvested and stained with an APC-conjugated anti-human CD45 according to the manufacturer's instructions. For solid tumor cell lines, cellular viability was determined using the AlamarBlue kit (Invitrogen). About 10,000 cells in 100 μL of media containing 10% FBS were aliquoted into individual wells of a 96-well plate and treated with vehicle (DMSO) or compound in triplicate for 24 hours. Ten μL of AlamarBlue reagent was added to each well and incubated for 4 hours at 37° C. with 5% CO2. Fluorescence was measured with an excitation wavelength at 530 to 560 nm and emission wavelength at 590 nm using Spectramax M5 plate reader (Molecular Devices, Sunnyvale, Calif.).

[6] = system: primary T-ALL tumors; test: Viability of primary T-ALL tumors; type: cell-based, human; settings: 1.0, 2.5, and 5.0 μM, 72 hours
Experimental: Cryopreserved samples from the Columbia Presbyterian Hospital, the Erasmus MC-Sophia Children's Hospital, and the University of Padua were used. All samples were collected with informed consent and supervised by the institutes' review boards and the Acute Lymphoblastic Leukemia Strategic Scientific Committee.
as §1, with “Calif.). […]” for “Calif.).”

[7] = system: PTEN null T-ALL; test: Diseased Lck/PTEN^fl/fl mice with PTEN null T-ALL; type: in vivo; settings: 30 mg/kg BID, Day 4 and 7, compared to control mice
[8] = system: VCaP; test: pAkt pathway inhibition, VCaP; type: cell-based; settings: Homo sapiens, Prostate
[9] = system: LN229; test: Viability (AlamarBlue), LN229; type: cell-based; settings: Homo sapiens, LN-229; LN229, Glioma
Experimental: as §1

[10] = system: U87MG; test: pAkt pathway inhibition, U87MG; type: cell-based; settings: Homo sapiens, U-87 MG, Glioma
[11] = system: T47D; test: pAkt pathway inhibition, T47D; type: cell-based; settings: Homo sapiens, Breast
[12] = system: U251; test: pAkt pathway inhibition, U251; type: cell-based; settings: Homo sapiens, U-251; U251, Glioma
[13] = Mouse PK; type: in vivo; settings: plasma, PO 20 mg/kg
Description: (§2) The pharmacokinetics of Compound A in mouse and dogs were also examined. […] The results of Tmax (time of maximum observed concentration), Cmax (maximum concentration in plasma measured), AUC (area under the curve for plasma concentration versus time), Cl (total body clearance), and Vz (volume of distribution) were summarized in Table 4. As used herein, the mark ‘-’ represents data not relevant. AUC is shown as the unit of ng*h/mL (ng=nanograms, h=hour, mL=milliliter); ng are multiplied by h, and the value is divided by the volume in mL.

[14] = system: IGROV-1; test: pAkt pathway inhibition, IGROV-1; type: cell-based; settings: Homo sapiens; IGROV-1, Ovarian
[15] = system: OVCAR-3; test: Viability (AlamarBlue), OVCAR-3; type: cell-based; settings: Homo sapiens; OVCAR-3, Ovarian
Experimental: as §1

[16] = system: Solid tumor; test: Cellular viability, solid tumor; type: cell-based; settings: N = 14
Experimental: as §1
Cellular viability and pAkt activity were used to determine effects of Compounds A, C, and D in solid tumor, B-cell malignancies, and T-cell malignancies.

[17] = system: PC3; test: Viability (AlamarBlue), PC3; type: cell-based; settings: Homo sapiens, PC-3; PC3, Prostate
Experimental: as §1

[18] = system: LN18; test: Viability (AlamarBlue), LN18; type: cell-based; settings: Homo sapiens, LN-18; LN18, Glioma
Experimental: as §1

[19] = system: RXF-393; test: pAkt pathway inhibition, RXF-393; type: cell-based; settings: Homo sapiens; RXF-393, Renal
[20] = system: 786-0; test: Viability (AlamarBlue), 786-0; type: cell-based; settings: Homo sapiens; 786-0, Renal
Experimental: as §1

[21] = system: U87MG; test: Viability (AlamarBlue), U87MG; type: cell-based; settings: Homo sapiens, U-87 MG, Glioma
Experimental: as §1

[22] = system: MDA-MB-468; test: pAkt pathway inhibition, MDA-MB-468; type: cell-based; settings: Homo sapiens; MDA-MB-468, Breast
[23] = Dog PK; type: in vivo; settings: plasma
Description: as §2

CC(Nc1ncnc2[nH]cnc12)c1nc2cccc(Cl)c2c(=O)n1-c1ccccc1 (centres unmarked) [Compound A, 2-(1-(9H-purin-6-ylamino)ethyl)-5-chloro-3-phenylquinazolin-4(3H)-one]
EC50 [1]: 250 nM | EC50 [2]: 155 nM | EC50 [3]: 647 nM | EC50 [4]: 44 nM | GI50 [5]: 220 nM | viability of tumor cells [6]: reduced viability | luminescent signal [7]: significantly lower | EC50 [8]: 1200 nM | GI50 [9]: 3000 nM | EC50 [10]: 17 nM | EC50 [11]: 502 nM | EC50 [12]: 2250 nM | AUC [13]: 1500 ng·h/mL | Cmax [13]: 1280 ng/mL | Tmax [13]: 0.25 h | EC50 [14]: 10 nM | GI50 [15]: 850 nM | EC50 [16]: 1700 nM | GI50 [17]: 2400 nM | GI50 [18]: 3500 nM | EC50 [19]: 25 nM | GI50 [20]: 5000 nM | GI50 [21]: 2500 nM | EC50 [22]: 56 nM | clearance ([23]; IV 1 mg/kg): 6.08 mL/min/kg | Vd ([23]; IV 1 mg/kg, read-out: Vz): 0.891 L/kg | AUC ([23]; PO 1 mg/kg): 4450 ng·h/mL | Cmax ([23]; PO 1 mg/kg): 1040 ng/mL | Tmax ([23]; PO 1 mg/kg): 2.3 h

Reference: US20130143902A1, “COMPOSITIONS AND METHODS OF TREATING A PROLIFERATIVE DISEASE WITH A QUINAZOLINONE DERIVATIVE” (GILEAD CALISTOGA LLC, priority 2011, published 2013)
